# Assay results as given in patent US6861448B2, “NAD synthetase inhibitors and uses thereof” (priority 1998, dated 2005).
# Molecular target: NAD synthetase (Bacillus subtilis, UniProt P08164)
# Assay: NAD synthetase coupled enzyme assay
# Assay type: biochemical
# Details: not given
# Excerpt: This Example illustrates the NAD synthetase enzyme inhibiting activity of some compounds of the present invention. [drawing 48] The coupled assay—production of NAD was monitored through conversion to NADH by alcohol dehydrogenase. [NADH] was monitored by 2 parallel methods: the change in absorbance at 340 nm, and fluorescence at 460 nm (excitation 320 nm). […] Controls were included for determining inhibitor background, precipitation, and ADH inhibition.
# NAD synthetase, sequence (P08164 whole entry): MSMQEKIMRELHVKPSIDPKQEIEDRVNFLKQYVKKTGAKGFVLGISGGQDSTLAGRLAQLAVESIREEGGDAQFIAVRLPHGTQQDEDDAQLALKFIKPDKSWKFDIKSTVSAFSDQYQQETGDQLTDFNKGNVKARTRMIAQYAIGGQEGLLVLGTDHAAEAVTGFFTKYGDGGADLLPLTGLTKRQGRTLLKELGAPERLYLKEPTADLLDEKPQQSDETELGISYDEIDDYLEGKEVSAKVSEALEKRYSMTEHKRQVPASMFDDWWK
row,Structure (SMILES),IC50 [µM]
1,N=C(N)N[C@H](COCCCCCCCCOc1ccc(OCc2ccccc2)cc1)Cc1ccccc1 [Compound 1679],10.4

# Same assay, conditions: NAD synthetase 2.0 μg/mL; 0.1 mM NaAD; 0.2 mM ATP; pH 8.5
row,Structure (SMILES),IC50 [µM]
1,C[N+](C)(C)C(Cc1ccccc1)C(=O)OCCCCCCCn1ccc2cc(OCc3ccccc3)ccc21 (centres unmarked) [Compound 1408],30.5
2,CCC[N+]1([C@@H](Cc2ccccc2)C(=O)NCCCCCCCCOc2ccc(OCc3ccccc3)cc2)CCCC1 [Compound 1502],35.6
3,C[N+](C)(C)c1ccc(CC(=O)OCCCCCCCOC(=O)c2ccc(OCc3ccccc3)cc2)cc1 [Compound 1359],42.2
4,C[N+](C)(C)c1ccc(CC(=O)NCCCCCCCCOc2ccc(OC(=O)c3cc(F)c(F)c(F)c3)cc2)cc1 [Compound 1650],> 50
5,C[N+](C)(C)C(Cc1ccccc1)C(=O)NCCCCCCCCOc1ccc(OC(=O)c2c(Cl)cc(Cl)cc2Cl)cc1 (centres unmarked) [Compound 1616],38.5
6,C[N+](C)(C)C(Cc1ccccc1)C(=O)NCCCCCCCCOc1ccc(OC(=O)c2cccc(F)c2F)cc1 (centres unmarked) [Compound 1609],20.7
7,C[n+]1cccc(C(=O)NCCCCCCCCOc2ccc(OC(=O)c3cc(F)c(F)c(F)c3)cc2)c1 [Compound 1678],36.5
8,C[N+]1([C@@H](Cc2ccccc2)C(=O)OCCCCCCCCOc2ccc(OCc3ccccc3)cc2)CCCC1 [Compound 1336],19.4
9,C[N+](C)(C)C(Cc1ccccc1)C(=O)NCCCCCCCCOc1ccc(OC(=O)c2ccc(F)c(F)c2)cc1 (centres unmarked) [Compound 1613],19.1
10,CC[N+]1([C@@H](Cc2ccccc2)C(=O)OCCCCCCCCOc2ccc(OCc3ccccc3)cc2)CCCC1 [Compound 1442],21.4
11,C[N+](C)(C)C(Cc1ccc([N+](=O)[O-])cc1)C(=O)OCCCCCCCCOc1ccc(OCc2ccccc2)cc1 (centres unmarked) [Compound 1405],18.8
12,C[n+]1cccc(C(=O)NCCCCCCCCOc2ccc(OC(=O)c3ccc(Cl)c(Cl)c3)cc2)c1 [Compound 1665],19.6
13,N=C(N)N[C@@H](Cc1ccccc1)C(=O)NCCCCCCCCOc1ccc(OCc2ccccc2)cc1 [Compound 1681],12.9
14,C[N+](C)(C)C(Cc1ccccc1)C(=O)OCCCCCCCCOc1ccc(OC(=O)c2ccc(C#N)cc2)cc1 (centres unmarked) [Compound 1479],18.6
15,C[N+](C)(C)c1ccc(CC(=O)NCCCCCCCCOc2ccc(OC(=O)c3cc(Cl)cc(Cl)c3)cc2)cc1 [Compound 1637],23.3
16,CCC[N+]1([C@@H](Cc2ccccc2)C(=O)OCCCCCCCCOc2ccc(OCc3ccccc3)cc2)CCCC1 [Compound 1443],27.9
17,C[n+]1cccc(C(=O)NCCCCCCCCOc2ccc(OCc3cccc(Cl)c3)cc2)c1 [Compound 1422],27.9
18,C[N+](C)(C)c1ccc(CC(=O)NCCCCCCCCOc2ccc(OC(=O)c3ccc(Cl)cc3Cl)cc2)cc1 [Compound 1633],20.4
19,C[N+](C)(C)c1ccc(CC(=O)OCCCCCCCCOc2ccc(OCc3cccc(Cl)c3)cc2)cc1 [Compound 1397],16.9
20,C[N+](C)(C)C(Cc1ccccc1)C(=O)NCCCCCCCCOc1ccc(OC(=O)c2ccccc2F)cc1 (centres unmarked) [Compound 1596],28
21,CN(C)[C@@H](Cc1ccccc1)C[N+](C)(C)CCCCCCCCOc1ccc(OCc2ccccc2)cc1 [Compound 1498],39.4
22,COc1ccccc1COc1ccc(OCCCCCCCCOC(=O)Cc2ccc([N+](C)(C)C)cc2)cc1 [Compound 1393],36.7
23,C[N+](C)(C)c1ccc(CC(=O)NCCCCCCCCOc2ccc(OC(=O)c3cc(Cl)cc(Cl)c3Cl)cc2)cc1 [Compound 1644],23.9

row,Structure (SMILES),IC50 [µM]
1,C[n+]1cccc(C(=O)NCCCCCCCCOc2ccc(OC(=O)c3c(Cl)cccc3Cl)cc2)c1 [Compound 1664],19.9
2,C[N+](C)(C)[C@@H](Cc1c[nH]c2ccccc12)C(=O)OCCCCCCCCOc1ccc(OCc2ccccc2)cc1 [Compound 1491],19.9
3,C[N+](C)(C)C(Cc1ccccc1)C(=O)NCCCCCCCCOc1ccc(OC(=O)c2cc(Cl)cc(Cl)c2)cc1 (centres unmarked) [Compound 1608],26.3
4,C[N+](C)(C)C(Cc1ccccc1)C(=O)NCCCCCCCCOc1ccc(OC(=O)c2cc(F)cc(F)c2)cc1 (centres unmarked) [Compound 1614],23.1
5,CC(=O)Oc1ccc(C(=O)Oc2ccc(OCCCCCCCCNC(=O)C(Cc3ccccc3)[N+](C)(C)C)cc2)cc1 (centres unmarked) [Compound 1599],44
6,C[N+](C)(C)C(Cc1ccccc1)C(=O)OCCCCCCCCOc1ccc(OC(=O)c2ccc(S(N)(=O)=O)cc2)cc1 (centres unmarked) [Compound 1485],34.8
7,C[N+](C)(C)c1ccc(CC(=O)NCCCCCCCCOc2ccc(OC(=O)c3cccc(Cl)c3Cl)cc2)cc1 [Compound 1632],18.5
8,C[N+]1([C@@H](Cc2ccccc2)C(=O)OCCCCCCCCOc2ccc(OCc3ccccc3)cc2)CCCCC1 [Compound 1337],20.3
9,C[N+](C)(C)C(Cc1ccccc1)C(=O)OCCCCCCCCOc1ccc(OCc2ccccc2)cc1 (centres unmarked) [Compound 1338],23
10,COc1cccc(COc2ccc(OCCCCCCCCOC(=O)C(Cc3ccccc3)[N+](C)(C)C)cc2)c1 (centres unmarked) [Compound 1388],14.5
11,CSc1ccc(C(=O)Oc2ccc(OCCCCCCCCOC(=O)C(Cc3ccccc3)[N+](C)(C)C)cc2)cc1 (centres unmarked) [Compound 1478],15.8
12,C[N+](C)(C)c1ccc(CC(=O)NCCCCCCCCOc2ccc(OC(=O)c3cccc(Cl)c3)cc2)cc1 [Compound 1623],33.9
13,C[N+](C)(C)C(Cc1ccccc1)C(=O)NCCCCCCCCOc1ccc(OC(=O)c2cc(F)c(F)cc2F)cc1 (centres unmarked) [Compound 1619],22.3
14,C[N+](C)(C)c1ccc(CC(=O)OCCCCCCCCn2ccc3cccc(OCc4ccccc4)c32)cc1 [Compound 1127],23
15,C[N+](C)(C)c1ccc(CCCC(=O)OCCCCCCCCOc2ccc(OCc3ccccc3)cc2)cc1 [Compound 1264],38.1
16,C[N+](C)(C)C(Cc1ccccc1)C(=O)NCCCCCCCCOc1ccc(OC(=O)c2c(F)cc(F)cc2F)cc1 (centres unmarked) [Compound 1620],21.9
17,CC(C)Oc1ccc(C(=O)Oc2ccc(OCCCCCCCCOC(=O)C(Cc3ccccc3)[N+](C)(C)C)cc2)cc1 (centres unmarked) [Compound 1477],14
18,C[N+](C)(C)C(Cc1ccccc1)C(=O)NCCCCCCCCOc1ccc(OC(=O)c2cc(Cl)cc(Cl)c2Cl)cc1 (centres unmarked) [Compound 1615],22.3
19,CC(C)Oc1ccc(C(=O)Oc2ccc(OCCCCCCCCNC(=O)Cc3ccc([N+](C)(C)C)cc3)cc2)cc1 [Compound 1629],21.1
20,C[N+](C)(C)c1ccc(CC(=O)NCCCCCCCCOc2ccc(OC(=O)c3c(Cl)cc(Cl)cc3Cl)cc2)cc1 [Compound 1645],18.1
21,CC(C)Oc1ccc(C(=O)Oc2ccc(OCCCCCCCCNC(=O)C(Cc3ccccc3)[N+](C)(C)C)cc2)cc1 (centres unmarked) [Compound 1600],28.7
22,C[n+]1cccc(C(=O)NCCCCCCCCOc2ccc(OC(=O)c3ccc(Cl)cc3)cc2)c1 [Compound 1653],19.5
23,C[N+](C)(C)c1ccc(CC(=O)OCCCCCCCCCOc2ccc(OCc3ccccc3)cc2)cc1 [Compound 1321],22

row,Structure (SMILES),IC50 [µM]
1,C[N+](C)(C)C(Cc1ccccc1)C(=O)OCCCCCCCCOc1ccc(OCc2ccccc2Cl)cc1 (centres unmarked) [Compound 1390],14.2
2,CN(CCCCCCCCOc1ccc(OCc2ccccc2)cc1)C[C@H](Cc1ccccc1)[N+](C)(C)C [Compound 1499],26.8
3,COc1ccc(COc2ccc(OCCCCCCCCOC(=O)C(Cc3ccccc3)[N+](C)(C)C)cc2)cc1 (centres unmarked) [Compound 1389],45.5
4,CC(=O)Nc1ccc(C(=O)Oc2ccc(OCCCCCCCCOC(=O)C(Cc3ccccc3)[N+](C)(C)C)cc2)cc1 (centres unmarked) [Compound 1482],26.2
5,C[N+](C)(C)c1ccc(CC(=O)OCCCCCCCCOc2ccc(OCc3ccccc3Cl)cc2)cc1 [Compound 1396],15.1
6,C[n+]1cccc(C(=O)NCCCCCCCCOc2ccc3c(c2)C(=O)CC(c2ccccc2)O3)c1 (centres unmarked) [Compound 1448],30.7
7,C[N+](C)(C)c1ccc(CC(=O)NCCCCCCCCOc2ccc(OC(=O)c3cc(Cl)ccc3Cl)cc2)cc1 [Compound 1634],21.2
8,CC(C)(C)OC(=O)C(Cc1cn(CCCCCCCCOc2ccc(OCc3ccccc3)cc2)c2ccccc12)[N+](C)(C)C (centres unmarked) [Compound 1494],12.5
9,C[N+](C)(C)c1ccc(CC(=O)NCCCCCCCCOc2ccc(OCc3cccc(Cl)c3)cc2)cc1 [Compound 1421],34.8
10,C[N+](C)(C)c1ccc(CC(=O)OCCCCCCCCOc2cccc(OCc3ccccc3)c2)cc1 [Compound 1169],36.2
11,C[N+](C)(C)c1ccc(CC(=O)NCCCCCCCCOc2ccc(OC(=O)c3ccc(Cl)cc3)cc2)cc1 [Compound 1624],31.2
12,C[N+](C)(C)c1ccc(CC(=O)NCCCCCCCCOc2ccc(OC(=O)c3c(Cl)cccc3Cl)cc2)cc1 [Compound 1635],35.1
13,C[N+](C)(C)c1ccc(CC(=O)OCCCCCCCCCCCOc2ccc(OCc3ccccc3)cc2)cc1 [Compound 1323],48.2
14,COc1ccccc1COc1ccc(OCCCCCCCCOC(=O)C(Cc2ccccc2)[N+](C)(C)C)cc1 (centres unmarked) [Compound 1387],20.5
15,C[N+](C)(C)C(Cc1ccccc1)C(=O)NCCCCCCCCOc1ccc(OC(=O)c2cccc(F)c2)cc1 (centres unmarked) [Compound 1597],21.3
16,CC[N+]1([C@@H](Cc2ccccc2)C(=O)NCCCCCCCCOc2ccc(OCc3ccccc3)cc2)CCCC1 [Compound 1501],38.2
17,C[N+](C)(C1CCOCC1)[C@@H](Cc1ccccc1)C(=O)OCCCCCCCCOc1ccc(OCc2ccccc2)cc1 [Compound 1358],46.6
18,C[N+](C)(C)C(Cc1ccccc1)C(=O)NCCCCCCCCOc1ccc(OC(=O)c2c(Cl)cccc2Cl)cc1 (centres unmarked) [Compound 1606],39.1
19,C[N+](C)(C)C(Cc1ccccc1)C(=O)NCCCCCCCCOc1ccc(OC(=O)c2cc(F)ccc2F)cc1 (centres unmarked) [Compound 1611],23.3
20,C[N+](C)(C)C(Cc1ccccc1)C(=O)NCCCCCCCCOc1ccc(OC(=O)c2cc(Cl)ccc2Cl)cc1 (centres unmarked) [Compound 1605],21
21,C[N+](C)(C)C(Cc1ccccc1)C(=O)NCCCCCCCCOc1ccc(OC(=O)c2ccc(F)cc2F)cc1 (centres unmarked) [Compound 1610],30.4
